Source: patent US20240239861A1, “GLUCAGON-RECEPTOR SELECTIVE POLYPEPTIDES AND METHODS OF USE THEREOF” (i2O Therapeutics, Inc., priority 2016, published 2024)
Where two headings read alike, the source gives them in different places. *1 amine or outer side, *2 acyl side, *3 side chain or, on linkers, in order; H or OH if unused. Where a SMILES comes first, the peptide text is derived from it. Side-chain parts run from the residue outwards. [ ]: non-standard residue; d: D form. The star is where a group is joined. γGlu = O=C(O)[C@H](CCC(=O)[*:2])N[*:1]; Palmitoyl = CCCCCCCCCCCCCCCC(=O)*; Aib = CC(C)(N)C(=O)O

Tests used:
human GCGR = human GCGR (Homo sapiens, UniProt P47871); assay: Peptide-receptor mediated cAMP accumulation (LANCE Ultra cAMP) in CHO-K1 cells transfected with human GCGR; format: cell-based
human GLP-1R = human GLP-1R (Homo sapiens, UniProt P43220); assay: Peptide-receptor mediated cAMP accumulation (LANCE Ultra cAMP) in CHO-K1 cells transfected with human GLP-1R; format: cell-based
Chain of human GLP-1R (P43220 24-463): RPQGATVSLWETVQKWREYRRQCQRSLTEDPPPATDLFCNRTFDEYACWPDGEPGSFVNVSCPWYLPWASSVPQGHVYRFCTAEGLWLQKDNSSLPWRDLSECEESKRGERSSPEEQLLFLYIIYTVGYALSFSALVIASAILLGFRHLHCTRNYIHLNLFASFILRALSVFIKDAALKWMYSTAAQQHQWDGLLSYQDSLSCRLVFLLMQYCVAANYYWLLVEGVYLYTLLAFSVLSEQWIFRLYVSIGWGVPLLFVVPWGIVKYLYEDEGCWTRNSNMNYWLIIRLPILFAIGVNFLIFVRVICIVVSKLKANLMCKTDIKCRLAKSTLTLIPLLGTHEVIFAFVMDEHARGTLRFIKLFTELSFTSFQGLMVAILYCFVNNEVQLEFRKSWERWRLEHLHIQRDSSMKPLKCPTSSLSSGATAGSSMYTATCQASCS

[1] = hGLP1 pEC50 (cAMP mean (n = 3): 11 point curve starting at 1 nM, Table 3)

Row | Molecule | EC50 (human GLP-1R; [1]) | EC50 (human GCGR; Table 3) | also measured
1 | CC(C)C[C@H](NC(=O)[C@H](Cc1ccc(O)cc1)NC(=O)[C@H](CCCCN)NC(=O)[C@H](CO)NC(=O)[C@H](Cc1ccc(O)cc1)NC(=O)[C@H](CC(=O)O)NC(=O)[C@H](CO)NC(=O)[C@@H](NC(=O)[C@H](Cc1ccccc1)NC(=O)[C@@H](NC(=O)CNC(=O)[C@H](Cc1c[nH]cn1)NC(=O)[C@H](CO)NC(=O)[C@@H](N)Cc1ccc(O)cc1)[C@@H](C)O)[C@@H](C)O)C(=O)N[C@@H](CC(=O)O)C(=O)NC(C)(C)C(=O)N[C@@H](CCCCN)C(=O)N[C@@H](CCCNC(=N)N)C(=O)N[C@@H](C)C(=O)N[C@@H](CCC(N)=O)C(=O)N[C@@H](CCC(=O)O)C(=O)N[C@@H](Cc1ccccc1)C(=O)N[C@H](C(=O)NC(C)(C)C(=O)N[C@@H](Cc1c[nH]c2ccccc12)C(=O)N[C@@H](CC(C)C)C(=O)N[C@@H](CCC(=O)O)C(=O)N[C@@H](CC(=O)O)C(=O)N[C@@H](CCC(=O)O)C(=O)N[C@@H](CCC(=O)O)C(=O)N1CCC[C@H]1C(=O)N[C@@H](CO)C(=O)N[C@@H](CO)C(=O)NCC(=O)N[C@@H](C)C(=O)N1CCC[C@H]1C(=O)N1CCC[C@H]1C(=O)N1CCC[C@H]1C(=O)N[C@@H](CO)C(=O)O)C(C)C [Compound A10] (H-YSHGTFTSDYSKYLD[Aib]KRAQEFV[Aib]WLEDEEPSSGAPPPS-OH; N-terminus assumed) | > 1 nM | 0.00501 nM | 
2 | CC(C)C[C@H](NC(=O)[C@H](Cc1ccc(O)cc1)NC(=O)[C@H](CCCCN)NC(=O)[C@H](CO)NC(=O)[C@H](Cc1ccc(O)cc1)NC(=O)[C@H](CC(=O)O)NC(=O)[C@H](CO)NC(=O)[C@@H](NC(=O)[C@H](Cc1ccccc1)NC(=O)[C@@H](NC(=O)CNC(=O)[C@H](Cc1c[nH]cn1)NC(=O)[C@H](CO)NC(=O)[C@@H](N)Cc1ccc(O)cc1)[C@@H](C)O)[C@@H](C)O)C(=O)N[C@@H](CC(=O)O)C(=O)NC(C)(C)C(=O)N[C@@H](CCCCN)C(=O)N[C@@H](CCCNC(=N)N)C(=O)N[C@@H](C)C(=O)N[C@@H](CCC(N)=O)C(=O)N[C@@H](CCC(=O)O)C(=O)N[C@@H](Cc1ccccc1)C(=O)N[C@H](C(=O)NC(C)(C)C(=O)N[C@@H](Cc1c[nH]c2ccccc12)C(=O)N[C@@H](CC(C)C)C(=O)N[C@@H](CCC(=O)O)C(=O)N[C@@H](CC(=O)O)C(=O)N[C@@H](CCC(=O)O)C(=O)N1CCC[C@H]1C(=O)N[C@@H](CO)C(=O)N[C@@H](CCCCN)C(=O)NCC(=O)N[C@@H](C)C(=O)N1CCC[C@H]1C(=O)N1CCC[C@H]1C(=O)N1CCC[C@H]1C(=O)N[C@@H](CO)C(=O)O)C(C)C [Compound A30] (H-YSHGTFTSDYSKYLD[Aib]KRAQEFV[Aib]WLEDEPSKGAPPPS-OH; N-terminus assumed) | > 1 nM | 0.0126 nM | 
3 | CC(C)C[C@H](NC(=O)[C@H](Cc1ccc(O)cc1)NC(=O)[C@H](CCCCN)NC(=O)[C@H](CO)NC(=O)[C@H](Cc1ccc(O)cc1)NC(=O)[C@H](CC(=O)O)NC(=O)[C@H](CO)NC(=O)[C@@H](NC(=O)[C@H](Cc1ccccc1)NC(=O)[C@@H](NC(=O)CNC(=O)[C@H](Cc1c[nH]cn1)NC(=O)[C@H](CO)NC(=O)[C@@H](N)Cc1ccc(O)cc1)[C@@H](C)O)[C@@H](C)O)C(=O)N[C@@H](CC(=O)O)C(=O)NC(C)(C)C(=O)N[C@@H](CCCCN)C(=O)N[C@H](C(=O)N[C@@H](C)C(=O)N[C@@H](CCC(N)=O)C(=O)N[C@@H](CCC(=O)O)C(=O)N[C@@H](Cc1ccccc1)C(=O)N[C@H](C(=O)NC(C)(C)C(=O)N[C@@H](Cc1c[nH]c2ccccc12)C(=O)N[C@@H](CC(C)C)C(=O)N[C@@H](CCC(=O)O)C(=O)N[C@@H](CC(=O)O)C(=O)N[C@@H](CCC(=O)O)C(=O)N1CCC[C@H]1C(=O)N[C@@H](CO)C(=O)N[C@@H](CO)C(=O)NCC(=O)N[C@@H](C)C(=O)N1CCC[C@H]1C(=O)N1CCC[C@H]1C(=O)N1CCC[C@H]1C(=O)N[C@@H](CO)C(=O)O)C(C)C)[C@@H](C)O [Compound A77] (H-YSHGTFTSDYSKYLD[Aib]KTAQEFV[Aib]WLEDEPSSGAPPPS-OH; N-terminus assumed) | > 1 nM | 0.00316 nM | 
4 | CCCCCCCCCCCCCCCC(=O)N[C@@H](CCC(=O)NCCCC[C@H](NC(=O)[C@H](CC(=O)O)NC(=O)[C@H](CO)NC(=O)[C@@H](NC(=O)[C@H](Cc1ccccc1)NC(=O)[C@@H](NC(=O)CNC(=O)[C@H](Cc1c[nH]cn1)NC(=O)[C@H](CO)NC(=O)[C@@H](N)Cc1ccc(O)cc1)[C@@H](C)O)[C@@H](C)O)C(=O)N[C@@H](CO)C(=O)N[C@@H](CCCCN)C(=O)N[C@@H](Cc1ccc(O)cc1)C(=O)N[C@@H](CC(C)C)C(=O)N[C@@H](CC(=O)O)C(=O)NC(C)(C)C(=O)N[C@@H](CCCCN)C(=O)N[C@@H](CO)C(=O)N[C@@H](C)C(=O)N[C@@H](CCC(N)=O)C(=O)N[C@@H](CCC(=O)O)C(=O)N[C@@H](Cc1ccccc1)C(=O)N[C@H](C(=O)NC(C)(C)C(=O)N[C@@H](Cc1c[nH]c2ccccc12)C(=O)N[C@@H](CC(C)C)C(=O)N[C@@H](CCC(=O)O)C(=O)N[C@@H](CC(=O)O)C(=O)N[C@@H](CCC(=O)O)C(=O)N1CCC[C@H]1C(=O)N[C@@H](CO)C(=O)N[C@@H](CO)C(=O)NCC(=O)N[C@@H](C)C(=O)N1CCC[C@H]1C(=O)N1CCC[C@H]1C(=O)N1CCC[C@H]1C(=O)N[C@@H](CO)C(=O)O)C(C)C)C(=O)O [Compound B12] (H-YSHGTFTSDK([γGlu-Palmitoyl])SKYLD[Aib]KSAQEFV[Aib]WLEDEPSSGAPPPS-OH) |  |  | EC50 (human GCGR; read-out: GluR pEC50 (converted)): 0.00316 nM; EC50 (human GLP-1R; Table 7, GLP-1R, read-out: GLP-1R pEC50 (converted)): 63.1 nM
5 | GLP-1 (7-37): form of glucagon-like peptide-1 used as comparator in the receptor activation profiles of FIG. 1 [reference compound] |  |  | activation profile at the human glucagon receptor (GCGR) (human GCGR; FIG. 1A): much lower potency
6 | CC(C)C[C@H](NC(=O)[C@H](Cc1ccc(O)cc1)NC(=O)[C@H](CCCCN)NC(=O)[C@H](CO)NC(=O)[C@H](Cc1ccc(O)cc1)NC(=O)[C@H](CC(=O)O)NC(=O)[C@H](CO)NC(=O)[C@@H](NC(=O)[C@H](Cc1ccccc1)NC(=O)[C@@H](NC(=O)CNC(=O)[C@H](Cc1c[nH]cn1)NC(=O)[C@H](CO)NC(=O)[C@@H](N)Cc1ccc(O)cc1)[C@@H](C)O)[C@@H](C)O)C(=O)N[C@@H](CC(=O)O)C(=O)N[C@@H](C)C(=O)N[C@@H](C)C(=O)N[C@@H](CCCNC(=N)N)C(=O)N[C@@H](C)C(=O)N[C@@H](CCC(N)=O)C(=O)N[C@@H](CCC(=O)O)C(=O)N[C@@H](Cc1ccccc1)C(=O)N[C@H](C(=O)N[C@@H](CCCCN)C(=O)N[C@@H](Cc1c[nH]c2ccccc12)C(=O)N[C@@H](CC(C)C)C(=O)N[C@@H](CCC(=O)O)C(=O)N[C@@H](CC(=O)O)C(=O)N[C@@H](CCC(=O)O)C(=O)N1CCC[C@H]1C(=O)N[C@@H](CCCCN)C(=O)N[C@@H](CO)C(=O)N[C@@H](CCCCN)C(=O)N[C@@H](CO)C(=O)N1CCC[C@H]1C(=O)N1CCC[C@H]1C(=O)N1CCC[C@H]1C(=O)N[C@@H](CO)C(N)=O)C(C)C [Compound A80] (H-YSHGTFTSDYSKYLDAARAQEFVKWLEDEPKSKSPPPS-NH2; N-terminus assumed) | > 1 nM |  | 

Continued, in another order:

Row | EC50 (human GLP-1R; [1]) | Molecule | EC50 (human GCGR; Table 3) | also measured
7 | > 1 nM | CC(C)C[C@H](NC(=O)[C@H](Cc1ccc(O)cc1)NC(=O)[C@H](CCCCN)NC(=O)[C@H](CO)NC(=O)[C@H](Cc1ccc(O)cc1)NC(=O)[C@H](CC(=O)O)NC(=O)[C@H](CO)NC(=O)[C@@H](NC(=O)[C@H](Cc1ccccc1)NC(=O)[C@@H](NC(=O)CNC(=O)[C@H](CCC(N)=O)NC(=O)[C@H](CO)NC(=O)[C@@H](N)Cc1ccc(O)cc1)[C@@H](C)O)[C@@H](C)O)C(=O)N[C@@H](CC(=O)O)C(=O)N[C@@H](CO)C(=O)N[C@@H](C)C(=O)N[C@@H](CCCNC(=N)N)C(=O)N[C@@H](C)C(=O)N[C@@H](CCC(N)=O)C(=O)N[C@@H](CCC(=O)O)C(=O)N[C@@H](Cc1ccccc1)C(=O)N[C@H](C(=O)N[C@@H](CCCCN)C(=O)N[C@@H](Cc1c[nH]c2ccccc12)C(=O)N[C@@H](CC(C)C)C(=O)N[C@@H](CCC(=O)O)C(=O)N[C@@H](CC(=O)O)C(=O)N[C@@H](CCC(=O)O)C(=O)N1CCC[C@H]1C(=O)N[C@@H](CCCCN)C(=O)N[C@@H](CO)C(=O)N[C@@H](CCCCN)C(=O)N[C@@H](CO)C(=O)N1CCC[C@H]1C(=O)N1CCC[C@H]1C(=O)N1CCC[C@H]1C(=O)N[C@@H](CO)C(=O)O)C(C)C [Compound A81] (H-YSQGTFTSDYSKYLDSARAQEFVKWLEDEPKSKSPPPS-OH; N-terminus assumed) | 0.01 nM | 
8 | > 1 nM | CC(C)C[C@H](NC(=O)[C@H](Cc1ccc(O)cc1)NC(=O)[C@H](CCCCN)NC(=O)[C@H](CO)NC(=O)[C@H](Cc1ccc(O)cc1)NC(=O)[C@H](CC(=O)O)NC(=O)[C@H](CO)NC(=O)[C@@H](NC(=O)[C@H](Cc1ccccc1)NC(=O)[C@@H](NC(=O)CNC(=O)[C@H](Cc1c[nH]cn1)NC(=O)[C@H](CO)NC(=O)[C@@H](N)Cc1ccc(O)cc1)[C@@H](C)O)[C@@H](C)O)C(=O)N[C@@H](CC(=O)O)C(=O)NC(C)(C)C(=O)N[C@@H](CCCCN)C(=O)N[C@@H](CCCNC(=N)N)C(=O)N[C@@H](C)C(=O)N[C@@H](CCC(N)=O)C(=O)N[C@@H](CCC(=O)O)C(=O)N[C@@H](Cc1ccccc1)C(=O)N[C@H](C(=O)NC(C)(C)C(=O)N[C@@H](Cc1c[nH]c2ccccc12)C(=O)N[C@@H](CC(C)C)C(=O)N[C@@H](CCC(=O)O)C(=O)N[C@@H](CC(=O)O)C(=O)N[C@@H](CCC(=O)O)C(=O)N1CCC[C@H]1C(=O)N[C@@H](CO)C(=O)N[C@@H](CO)C(=O)NCC(=O)N[C@@H](CCCCN)C(=O)N[C@@H](CCCCN)C(=O)N1CCC[C@H]1C(=O)N1CCC[C@H]1C(=O)N[C@@H](CO)C(=O)O)C(C)C [Compound A88] (H-YSHGTFTSDYSKYLD[Aib]KRAQEFV[Aib]WLEDEPSSGKKPPS-OH) |  | 
